Assays:
GRK2 [1] = biological target: T1, GRK2 (Homo sapiens, UniProt P25098); experiment: ADPGlo GRK2 Inhibition Assay (Example 8); assay type: biochemical
T1 construct: purchased SignalChem A14-10G
T1 sequence (P25098 1-689): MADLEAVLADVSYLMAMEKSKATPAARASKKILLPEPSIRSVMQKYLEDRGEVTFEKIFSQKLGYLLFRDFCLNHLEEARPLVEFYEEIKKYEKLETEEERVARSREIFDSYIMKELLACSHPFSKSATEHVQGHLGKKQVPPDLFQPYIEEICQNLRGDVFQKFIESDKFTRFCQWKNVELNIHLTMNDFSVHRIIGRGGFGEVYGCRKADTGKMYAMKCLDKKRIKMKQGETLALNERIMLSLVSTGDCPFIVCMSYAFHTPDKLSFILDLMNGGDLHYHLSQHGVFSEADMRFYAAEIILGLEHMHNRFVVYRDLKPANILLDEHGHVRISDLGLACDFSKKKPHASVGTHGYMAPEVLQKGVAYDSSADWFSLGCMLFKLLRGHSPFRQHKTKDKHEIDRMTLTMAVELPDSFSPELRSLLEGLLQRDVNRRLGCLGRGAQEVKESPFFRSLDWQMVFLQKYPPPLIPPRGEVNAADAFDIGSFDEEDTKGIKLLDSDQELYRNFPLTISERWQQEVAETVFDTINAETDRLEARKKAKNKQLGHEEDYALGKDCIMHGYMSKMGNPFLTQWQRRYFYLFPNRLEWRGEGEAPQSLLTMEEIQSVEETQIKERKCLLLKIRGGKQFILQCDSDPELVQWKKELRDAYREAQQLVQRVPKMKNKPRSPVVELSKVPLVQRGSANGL
How it was run: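 GRK2 (15 nM 2× enzyme solution) was preincubated 15 min with compound, then reacted 180 min at room temperature with 2× mix of 20 μM ATP plus GRKtide in HEPES pH 7.5, MgCl2, Tween-20, DTT. ADP was detected by ADP-Glo luminescence. Percent inhibition was normalised to enzyme and no-enzyme controls, with dose-response curves from threefold dilutions starting at 100 μM.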

[2] = test system: PAXF1657 control empty vector cell line; experiment: 7-day proliferation assay, PAXF1657 control empty vector cell line (Example 9); assay type: cell-based; conditions: 168 h; for GI50: 7-day compound treatment, CellTiter-Glo; for IC50: Cell Line: PAXF1657 empty vector (EV) cell line, 7-day, read-out: C: 7-day proliferation assay: IC50 GeoMean
How it was run: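 Cells plated at 500 per well and attached overnight. Next, 10-point inhibitor series added (30 μM-0.0002 μM, 0.3% DMSO) and a day-0 viability plate read. Then, after 3 days, medium with fresh compound. Finally, viability after 4 more days via CellTiter-Glo.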

[3] = test system: PAXF1657 cell line stably overexpressing GRK2; experiment: 7-day proliferation assay, PAXF1657 stably overexpressing GRK2 (Example 9); assay type: cell-based; conditions: for GI50: 168 h, 7-day compound treatment, CellTiter-Glo; for Ratio GRK2 overexpressing cells/Empty vector cells: GI50 in GRK2 overexpressing PAXF1657 over GI50 in empty vector PAXF1657
Procedure: In order to identify compounds specific for GRK2, we generated two isogenic cell line pairs of the pancreatic cancer cell line PAXF1657, a pair of cells stably overexpressing GRK2 cDNA or the control empty vector and a cell line pair of PAXF1657 GRK2 knockout clonal cells versus non-targeting control clonal cells.
Proliferation Assay: Cellular anti-proliferative activity of compounds was assessed by using the pancreatic cancer cell line, PAXF1657, stably overexpressing GRK2 cDNA or the control empty vector, as well as the parental urinary bladder cancer cell line, 5637. In addition, we also took advantage of GRK2 knockout cell lines that were generated via CRISPR. Cell lines were seeded into tissue culture treated, white-walled, 96-well plates at a density of 500 cells/well in RPMI1640 media supplemented with 10% H.I. FBS and penicillin/streptomycin. Plates were incubated overnight at 37° C., 5% CO2 to allow cells to adhere to the wells. GRK2 inhibitors were added to the cells using a 10-point dilution series with a final concentration ranging from 30 μM-0.0002 μM in 0.3% DMSO. At the time of compound addition, a set of plates, that were not treated with compounds, were collected and cell viability was measured using CellTiter-Glo (Promega). CellTiter-Glo reagent was added to the designed plates and luminescence was measuring using a Biotek Synergy plate reader. The compound treated cells were incubated for 3 days at 37° C., 5% CO2. The media was then aspirated from each well and replaced with fresh media containing GRK2 inhibitors. The compound treated cells were then incubated for an additional 4 days at 37° C., 5% CO2. Cell viability was assessed and at end of the 7-day compound treatment by CellTiterGlo.

GRK2 [4] = biological target: T1, GRK2; experiment: GRK2 Inhibition Assay (TR-FRET, Example 7); assay type: biochemical
How it was run: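 GRK2 at 1 nM preincubated 30 min with compound, then reacted 90 min at room temperature with 7 μM ATP and 50 nM ULight-TopoIIα in HEPES/MgCl2/DTT buffer. Phosphorylation detected by TR-FRET after Eu anti-TopoIIα and EDTA addition, 60 min.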

[5] = 7.5 nM GRK2, 10 μM ATP, ADP-Glo, read-out: GRK2 IC50 (nM) (Example 8)
[6] = Enzyme Assay A, ADPGlo (Example 8), read-out: A: Enzymatic GRK2: IC50 (nM) (Example 8)
[7] = Enzyme Assay B, TR-FRET (Example 7), read-out: B: Enzymatic GRK2: IC50 (nM) (Example 7)
[8] = ADPGlo GRK2 enzyme assay, read-out: A: Enzymatic GRK2: IC50 (nM) (Example 8)
[9] = TR-FRET GRK2 enzyme assay, read-out: B: Enzymatic GRK2: IC50 (nM) (Example 7)

Row | Structure (SMILES) | IC50 (GRK2 [1]; [6]) [nM] | IC50 (GRK2 [4]; [7]) [nM] | GI50 [2] [µM] | GI50 [3] [µM] | Ratio GRK2 overexpressing cells/Empty vector cells [3] | IC50 [2] [nM] | further results
1 | COc1cccnc1CNC(=O)c1cccc(NCc2nnc(-c3ccncc3)[nH]2)c1 [compound 33] | – | – | 1.33 | 17.7 | 13.27 | – | IC50 (GRK2 [1]; [5]): 7.8 nM
2 | CCn1ncc(CNC(=O)c2cccc(NCc3nnc(-c4ccncn4)n3C)c2)c1F [compound 15] | – | – | 4.01 | 17.7 | 4.42 | – | IC50 (GRK2 [1]; [5]): 18 nM
3 | Cc1cccnc1C(C)NC(=O)c1cccc(NCc2nnc(-c3ccncn3)n2C)c1 (centres unmarked) [compound 17] | – | – | 2.11 | 10.3 | 4.89 | – | IC50 (GRK2 [1]; [5]): 10 nM
4 | Cn1c(CNc2cccc(C(=O)N[C@H]3COc4ccccc43)c2)nnc1-c1ccncn1 [compound 26] | – | – | 0.68 | 4.18 | 6.15 | – | IC50 (GRK2 [1]; [5]): 9.8 nM
5 | Cc1ccnc(C(C)NC(=O)c2cccc(NCc3nnc(-c4ccncn4)n3C)c2)c1 (centres unmarked) [compound 25] | – | – | > 30 | 25.8 | – | – | –
6 | Cn1c(CNc2cccc(C(=O)NCc3cc(F)cc(F)c3)c2)nnc1-c1ccncn1 [compound 10] | – | – | 1.58 | 13.7 | 8.65 | – | IC50 (GRK2 [1]; [5]): 15 nM
7 | CCc1cnccc1CNC(=O)c1cccc(NCc2nnc(-c3ccncn3)n2C)c1 [compound 12] | – | – | 0.97 | 8.01 | 8.24 | – | IC50 (GRK2 [1]; [5]): 51 nM
8 | CNS(=O)(=O)c1cccc(F)c1CNC(=O)c1cccc(NCc2nnc(-c3ccncn3)n2C)c1 | – | – | – | – | – | 732 | IC50 (GRK2 [1]; [8]): 7.36 nM; IC50 (GRK2 [4]; [9]): 12.7 nM
9 | Cn1c(CNc2cccc(C(=O)NCc3cnc4ccccn34)c2)nnc1-c1ccncn1 | 0.96 | 3.2 | – | – | – | 1490 | –
10 | O=C(NCc1ccccc1C(F)(F)F)c1cccc(NCc2nnc3n2CCCOc2ccccc2-3)c1 [133a, reference compound] | – | – | 0.14 | 0.24 | 1.71 | – | –
11 | Cn1c(CNc2cccc(C(=O)N[C@@H]3COCc4ccccc43)c2)nnc1-c1ccncn1 [drawing 851] | – | – | – | – | – | > 800 | IC50 (GRK2 [1]; [8]): 20.2 nM; IC50 (GRK2 [4]; [9]): 11.9 nM
12 | Cn1c(CNc2cccc(C(=O)NCc3ccccc3C(F)(F)F)c2)nnc1-c1ccncc1 [115h, reference compound] | – | – | 8.91 | 10 | 1.12 | – | –
13 | C[C@H](NC(=O)c1cccc(NCc2nnc(-c3ccncn3)n2CCO)c1)c1ncccc1Cl | 4.89 | 0.88 | – | – | – | > 220 | –
14 | [2H]C([2H])(Nc1cccc(C(=O)NCc2ccncc2CC)c1)c1nnc(-c2ccncn2)n1C | 20.2 | 9.4 | – | – | – | > 30000 | –
15 | CCCn1c(CNc2cc(C(=O)NCc3ccccc3C(F)(F)F)ccn2)nnc1-c1ccncn1 [compound 35, 2-(((4-propyl-5-(pyrimidin-4-yl)-4H-1,2,4-triazol-3-yl)methyl)amino)-N-(2-(trifluoromethyl)benzyl)isonicotinamide] | – | – | 1.3 | 3.22 | 2.49 | – | IC50 (GRK2 [4]; 1 nM GRK2, 7 μM ATP, TR-FRET, read-out: GRK2 IC50 (nM) (Example 7)): 4.5 nM
16 | C[C@@H](NC(=O)c1cccc(NCc2nnc(-c3ccncn3)n2C)c1)c1ncccc1Cl [compound 29] | – | – | 1.24 | 5.01 | 4.04 | – | IC50 (GRK2 [1]; [5]): 12 nM
17 | Cn1c(CNc2cccc(C(=O)NC3CCOc4c(Cl)cccc43)c2)nnc1-c1ccncn1 (centres unmarked) [compound 20] | – | – | 1.03 | 7.99 | 7.76 | – | IC50 (GRK2 [1]; [5]): 10 nM
18 | Cn1c(CNc2cccc(C(=O)N[C@@H]3CCOc4c(Cl)cccc43)c2)nnc1-c1ccncn1 | – | – | – | – | – | > 470 | IC50 (GRK2 [1]; [8]): 8.2 nM; IC50 (GRK2 [4]; [9]): 3.6 nM
19 | CCCn1c(CNc2cccc(C(=O)NCc3ccccc3C(F)(F)F)c2)nnc1-c1ccncn1 [139c, reference compound] | – | – | 0.84 | 1.47 | 1.75 | – | –
20 | C#COc1cccc(OS(=O)(=O)F)c1CNC(=O)c1cccc(NCc2nnc(-c3ccncc3)[nH]2)c1 | 15.5 | 7.7 | – | – | – | 13300 | –
21 | O=C(N[C@@H]1COc2ccccc21)c1cccc(NCc2nnc(-c3ccncn3)n2CCO)c1 | 1.95 | < 3.6 | – | – | – | 90 | –

Further lines, with some results ahead:

Row | IC50 (GRK2 [1]; [6]) [nM] | IC50 (GRK2 [4]; [7]) [nM] | Structure (SMILES) | GI50 [2] [µM] | GI50 [3] [µM] | Ratio GRK2 overexpressing cells/Empty vector cells [3] | IC50 [2] [nM] | further results
22 | 0.5 | 3.3 | Cc1cc2c(cc1CNC(=O)c1cccc(NCc3nnc(-c4ccncn4)n3C)c1)OCCO2 [drawing 588] | – | – | – | 996 | –
23 | 9.4 | 15 | Cn1c(CNc2cccc(C(=O)NCc3ccc4c(c3)CCN4)c2)nnc1-c1ccncn1 [drawing 571] | – | – | – | > 30000 | –
24 | 3.3 | 8.1 | Cc1ccc(C(CO)NC(=O)c2cccc(NCc3nnc(-c4ccncn4)n3C)c2)cc1 (centres unmarked) [drawing 575] | – | – | – | > 30000 | –
25 | 2.8 | 7.2 | Cc1ccc2ncc(CNC(=O)c3cccc(NCc4nnc(-c5ccncn5)n4C)c3)n2c1 [drawing 596] | – | – | – | > 30000 | –
26 | 9.5 | 18 | Cn1c(CNc2cccc(C(=O)NCc3ccc(-n4ccnn4)cc3)c2)nnc1-c1ccncn1 [drawing 579] | – | – | – | > 30000 | –
27 | 2.1 | 20 | Cn1c(CNc2cccc(C(=O)NCc3ccc(-n4nccn4)cc3)c2)nnc1-c1ccncn1 [drawing 601] | – | – | – | > 30000 | –
28 | 4.3 | 17 | Cn1c(CNc2cccc(C(=O)NCc3cnccc3Cl)c2)nnc1-c1ccncn1 [drawing 570] | – | – | – | 1190 | –
29 | 9.8 | 13 | Cc1nc(CNC(=O)c2cccc(NCc3nnc(-c4ccncn4)n3C)c2)cs1 [drawing 610] | – | – | – | > 30000 | –
30 | 6.3 | 20 | Cn1c(CNc2cccc(C(=O)NCc3ccc(C#N)cc3)c2)nnc1-c1ccncn1 [drawing 603] | – | – | – | > 30000 | –
31 | 5.7 | 29 | Cn1nccc1CNC(=O)c1cccc(NCc2nnc(-c3ccncn3)n2C)c1 [drawing 608] | – | – | – | > 30000 | –
32 | 9.5 | 6.7 | Cn1cccc1CNC(=O)c1cccc(NCc2nnc(-c3ccncn3)n2C)c1 [drawing 585] | – | – | – | 551 | –
33 | 1.7 | 26 | Cn1c(CNc2cccc(C(=O)NCc3ccc4nccn4c3)c2)nnc1-c1ccncn1 [drawing 611] | – | – | – | 2930 | –

From US20230009608A1, “GRK2 INHIBITORS AND USES THEREOF” (Cygnal Therapeutics, Inc., priority 2020, published 2023)
